Measured values published in ChEMBL document CHEMBL3739395, “Discovery and optimisation of 1-acyl-2-benzylpyrrolidines as potent dual orexin receptor antagonists” (Medchemcomm, 2015).
Converted amounts (≈) assume the structure as drawn.

How the values were obtained:
Orexin receptor type 2 = target: T1, Orexin receptor type 2 (Homo sapiens, UniProt O43614); assay: Inhibition of human orexin-2 receptor expressed in CHO cells assessed as calcium release preincubated for 120 mins followed by addition of orexin-A by fluo-4 AM based-FLIPR analysis; assay type: functional, cell-based
T1 sequence (O43614 whole entry): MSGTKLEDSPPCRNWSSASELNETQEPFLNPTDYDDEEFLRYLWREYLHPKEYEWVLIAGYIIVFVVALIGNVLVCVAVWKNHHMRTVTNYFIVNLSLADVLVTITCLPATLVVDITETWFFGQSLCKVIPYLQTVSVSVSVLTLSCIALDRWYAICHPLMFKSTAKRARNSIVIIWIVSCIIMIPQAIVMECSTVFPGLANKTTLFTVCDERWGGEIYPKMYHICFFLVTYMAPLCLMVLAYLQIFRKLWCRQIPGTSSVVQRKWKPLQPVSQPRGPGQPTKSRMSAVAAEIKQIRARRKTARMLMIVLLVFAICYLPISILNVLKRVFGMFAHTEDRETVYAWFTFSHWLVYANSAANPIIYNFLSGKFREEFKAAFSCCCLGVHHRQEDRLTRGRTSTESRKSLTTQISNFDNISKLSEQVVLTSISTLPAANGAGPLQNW

[1] = Intrinsic clearance in human liver microsomes at 1 uM; assay type: ADME; settings: read-out: CLH
[2] = target: T2, Orexin/Hypocretin receptor type 1 (Homo sapiens, UniProt O43613); assay: Inhibition of human orexin-1 receptor expressed in CHO cells assessed as calcium release preincubated for 120 mins followed by addition of orexin-A by fluo-4 AM based-FLIPR analysis; assay type: functional, cell-based
T2 sequence (O43613 whole entry): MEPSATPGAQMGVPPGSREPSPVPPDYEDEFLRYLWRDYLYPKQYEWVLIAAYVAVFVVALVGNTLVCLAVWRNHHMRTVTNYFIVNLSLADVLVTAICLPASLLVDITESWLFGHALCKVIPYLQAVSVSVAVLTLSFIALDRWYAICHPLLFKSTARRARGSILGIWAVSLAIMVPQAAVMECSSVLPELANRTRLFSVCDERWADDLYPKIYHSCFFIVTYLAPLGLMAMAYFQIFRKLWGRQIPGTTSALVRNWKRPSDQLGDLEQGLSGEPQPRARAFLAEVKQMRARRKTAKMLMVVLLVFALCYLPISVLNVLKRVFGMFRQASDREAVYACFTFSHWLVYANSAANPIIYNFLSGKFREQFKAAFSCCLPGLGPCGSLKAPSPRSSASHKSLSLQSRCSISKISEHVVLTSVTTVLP

[3] = Intrinsic clearance in rat liver microsomes at 1 uM; assay type: ADME; settings: read-out: CLH
[4] = Solubility of compound in unbuffered water at pH 4.1; assay type: physicochemical
Cytochrome P450 3A4 = Cytochrome P450 3A4 (Homo sapiens, UniProt P08684); assay: Inhibition of CYP3A4 (unknown origin) assessed as testosterone-6beta hydroxylation; assay type: ADME
[5] = Clearance in rat; assay type: ADME, organism-based; settings: in vivo
[6] = Oral bioavailability in rat; assay type: ADME, organism-based; settings: in vivo
[7] = Lipophilicity, log D of the compound; assay type: physicochemical; settings: octanol/water
[8] = Drug uptake in Wistar rat brain at 100 mg/kg, po measured 3 hrs post dose; assay type: ADME, organism-based; settings: read-out: Drug uptake
[9] = Drug uptake in Wistar rat cerebrospinal fluid at 100 mg/kg, po measured 3 hrs post dose; assay type: ADME, organism-based; settings: read-out: Drug uptake
[10] = Ratio of drug level in brain to plasma in Wistar rat at 100 mg/kg, po measured 3 hrs post dose; assay type: ADME, organism-based; settings: brain and plasma, read-out: BPR
[11] = Plasma concentration in Wistar rat at 100 mg/kg, po measured 3 hrs post dose; assay type: ADME, organism-based

Chain of Cytochrome P450 3A4 (P08684 whole entry): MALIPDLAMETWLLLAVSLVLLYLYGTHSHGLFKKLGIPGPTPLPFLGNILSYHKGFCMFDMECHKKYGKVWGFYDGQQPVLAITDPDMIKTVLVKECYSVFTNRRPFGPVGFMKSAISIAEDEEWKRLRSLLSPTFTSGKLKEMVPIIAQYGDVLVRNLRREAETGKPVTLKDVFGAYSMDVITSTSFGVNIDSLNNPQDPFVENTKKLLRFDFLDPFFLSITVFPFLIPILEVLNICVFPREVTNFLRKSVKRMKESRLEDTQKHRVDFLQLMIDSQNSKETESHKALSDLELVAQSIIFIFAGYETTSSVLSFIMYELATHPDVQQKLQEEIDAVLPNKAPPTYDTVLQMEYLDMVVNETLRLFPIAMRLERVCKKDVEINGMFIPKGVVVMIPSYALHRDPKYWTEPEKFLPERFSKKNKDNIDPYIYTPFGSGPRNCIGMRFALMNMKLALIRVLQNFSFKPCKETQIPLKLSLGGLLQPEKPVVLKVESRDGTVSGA

| SMILES | IC50 (Orexin receptor type 2) [nM] | microsomal CLint at 1 µM [1] [µL/min/mg] | IC50 [2] [nM] | also measured |
| --- | --- | --- | --- | --- |
| Cc1cccc(-c2sc(C)nc2C(=O)N2CCC[C@H]2Cc2ccc(Cl)c(Cl)c2)c1 | 66 | > 1250 | 22 |  |
| COc1ccc(C[C@@H]2CCCN2C(=O)c2ccccc2-c2nc(C)no2)cc1OC | 12 | 129 | 33 |  |
| COc1ccc(C[C@@H]2CCCN2C(=O)c2nc(C)sc2-c2cccc(Cl)c2)cc1OC | 6.3 | 612 | 9.1 |  |
| COc1cc(C[C@@H]2CCCN2C(=O)c2nc(C)sc2-c2cccc(C)c2)cc(OC)c1 | 4.3 | 798 | 3.4 |  |
| COc1ccc(CC2c3sccc3CCN2C(=O)c2cc(C)ccc2-n2nccn2)cc1OC (racemic) | 428 |  | 131 |  |
| COc1ccc(-c2sc(C)nc2C(=O)N2CCC[C@H]2Cc2ccc(OC)c(OC)c2)cc1 | 10 | 210 | 17 |  |
| COc1ccc(Cl)c(C[C@@H]2CCCN2C(=O)c2nc(C)sc2-c2cccc(C)c2)c1 | 18 | 996 | 33 | microsomal CLint at 1 µM [3]: > 1250 µL/min/mg |
| CCn1cc(C(=O)N2CCc3ccsc3C2Cc2ccc(OC)c(OC)c2)c2ccccc21 (racemic) | 1.4 | > 1250 | 5.4 | microsomal CLint at 1 µM [3]: > 1250 µL/min/mg; solubility [4]: 7 µg/mL (≈ 15.2 µM); IC50 (Cytochrome P450 3A4): 3000 nM |
| COc1ccc(C[C@@H]2CCCN2C(=O)c2cc(C)ccc2-n2nccn2)cc1OC | 8.4 | 356 | 8.5 | microsomal CLint at 1 µM [3]: > 1250 µL/min/mg; solubility [4]: 160 µg/mL (≈ 394 µM); clearance [5]: 55 mL/min/kg; bioavailability [6]: < 10%; logD [7]: 3 |
| COc1ccc(C[C@@H]2CCCN2C(=O)c2nc(C)sc2-c2ccc(F)cc2)cc1OC | 62 | 216 | 111 |  |
| Cc1cccc(-c2sc(C)nc2C(=O)N2CCC[C@H]2Cc2ccc3c(c2)OCCO3)c1 | 39 | 1040 | 35 |  |
| COc1ccc(C[C@@H]2CCCN2C(=O)c2ccccc2-c2ncccn2)cc1OC | 4.7 | 102 | 16 | concentration at 3 h [8]: 134 ng/mL; concentration at 3 h [9]: 113 ng/mL; Kp at 3 h [10]: 0.18; concentration at 3 h [11]: 737 ng/mL |
| COc1ccc(C[C@@H]2CCCN2C(=O)c2cc(C)ccc2-n2cccn2)cc1OC | 65 | > 1250 | 45 |  |
| COc1cccc(-c2sc(C)nc2C(=O)N2CCC[C@H]2Cc2ccc(OC)c(OC)c2)c1 | 7.8 | 300 | 11 |  |
| COc1ccc(C[C@@H]2CCCN2C(=O)c2nc(C)sc2-c2cccc(C)c2)cc1OC | 3.1 | 338 | 3.5 | concentration at 3 h [8]: 125 ng/mL; concentration at 3 h [9]: 6 ng/mL; Kp at 3 h [10]: 0.97; microsomal CLint at 1 µM [3]: > 1250 µL/min/mg; concentration at 3 h [11]: 129 ng/mL |
